Results: patent publication US20020022586A1, “Method for treating a patient with neoplasia by treatment with a pyrimidine analog” (priority 1998, published 2002)

Tests used:
[1] = test system: HT-29 cells; assay: HT-29 tumor cell growth inhibition, SRB assay; type: cell-based, human; design: Growth Inhibition: key to the marks not given beside the values
[2] = test system: T1, cGMP-PDE; assay: cGMP-PDE inhibition assay, enzyme from HT-29 tumor cells; type: biochemical, human; design: PDE Inhibition: key to the marks not given beside the values
T1 construct: other: 10 μM; other: 100 μM; other: enzyme from HT-29 cells; other: 20 μM

[3] = test system: cGMP-PDE; assay: as above; type: biochemical, human; design: PDE Inhibition: key to the marks not given beside the values; details: activity profile
[4] = test system: PDE4; assay: PDE4 inhibition assay, enzyme from HT-29 tumor cells; type: biochemical, human; details: enzyme from HT-29 cells
Experimental: Cyclic GMP labeled with tritium (^3H-cGMP) is used as the substrate for the PDE enzymes. (Thompson, W. J., Teraski, W. L., Epstein, P. M., Strada, S. J., Advances in Cyclic Nucleotide Research, 10:69-92, 1979, which is incorporated herein by reference).
In brief, a solution of defined substrate ^3H-cGMP specific activity is mixed with the drug to be tested. The mixture is incubated with isolated PDE activity (either a single PDE or a mixture of PDE activities). The degree of phosphodiesterase inhibition is determined by calculating the amount of radioactivity released in drug-treated reactions and comparing those against a control sample (a reaction mixture lacking the tested compound but with the drug solvent).
Reference compounds and test compounds were analyzed for their cGMP-PDE inhibitory activity in accordance with the protocol for the assay described supra. […] Both compounds show selectivity for the cGMP-PDE isoenzyme forms over PDE4 isoforms.

[5] = test system: premalignant lesions in mouse mammary gland organ culture; assay: Mammary gland organ culture model; type: cell-based; details: activity profile; further: key: −: Not active; +: Slightly active; ++: Moderately active; +++: Strongly active; ++++: Highly active
Experimental: For example, female BALB/c mice can be treated with a combination of estradiol and progesterone daily, in order to prime the glands to be responsive to hormones in vitro. The animals are sacrificed and thoracic mammary glands are excised aseptically and incubated for ten days in growth media supplemented with insulin, prolactin, hydrocortisone, and aldosterone. DMBA (7,12-dimethylbenz(a)anthracene) is added to medium to induce the formation of premalignant lesions. Fully developed glands are then deprived of prolactin, hydrocortisone, and aldosterone, resulting in the regression of the glands but not the premalignant lesions.
The test compound is dissolved in DMSO and added to the culture media for the duration of the culture period. At the end of the culture period, the glands are fixed in 10% formalin, stained with alum carmine, and mounted on glass slides. The extent of the area occupied by the mammary lesions can be quantitated by projecting an image of the gland onto a digitation pad. The area covered by the gland is traced on the pad and considered as 100% of the area. The space covered by each of the unregressed structures is also outlined on the digitization pad and quantitated by the computer.
The incidence of forming mammary lesions is the ratio of the glands with mammary lesions to […]. The incidence of mammary lesions in test compound treated glands is compared with that of the untreated glands.
Mammary gland organ culture experiments were performed as previously described (Mehta and Moon, Cancer Research, 46: 5832-5835, 1986). […] The data support the hypothesis that cyclooxygenase inhibition is not necessary for the anti-neoplastic properties of desired compounds.

[6] = test system: HT-29 cells; assay: Apoptosis by DNA fragmentation assay in HT-29 cells; type: cell-based, human; design: Apoptosis: key to the marks not given beside the values
[7] = test system: COX; assay: COX inhibition; type: biochemical

- IC50 ([2]; enzyme from HT-29 cells): 18 µM
- IC50 [4]: 58 µM
- EC50 ([6]; Homo sapiens, HT-29, 48 hours, DNA fragmentation, read-out: EC50 for apoptosis induction): ~175 µM
Structure (SMILES): COc1cc(/C=C2/C(C)=C(CC(=O)O)c3cc(F)ccc32)cc(OC)c1OC [Compound B, (Z)-5-Fluoro-2-methyl-1-(3,4,5-trimethoxybenzylidene)-3-acetic acid]
- inhibition at 100 µM ([1]; Homo sapiens, HT-29, 100 μM single dose, read-out: Growth inhibitory activity, % Inhibition at 100 μM): 77%
- Growth Inhibition ([1]; activity profile): +++
- cGMP PDE % Inhibition at 100 μM ([2]; 100 μM): <25%
- PDE Inhibition [3]: +++
- Mammary Gland Organ Culture [5]: ++
- fold induction at 100 µM ([6]; Homo sapiens, HT-29, 100 μM, read-out: Apoptosis inducing activity, Fold induction at 100 μM): > 2
- Apoptosis ([6]; activity profile): +++
- COX Inhibition ([7]; 100 μM): did not inhibit COX
- COX Inhibition ([7]; activity profile): −
